Reference: PMC12390941, “Ubiquitin-specific protease 7-mediated stabilization of discoidin domain receptor 1 drives progression of TP53-Mutant cancers” (The Journal of Biological Chemistry, 2025)
pIC50: −log10 of the molar value. Like-named read-outs stand apart in the source and are kept apart here.

Columns and labels:
USP2 = USP2 (Homo sapiens, UniProt O75604); experiment: selectivity panel of […] purified DUBs, ubiquitin-AMC substrate; format: biochemical
USP7 = USP7 (Homo sapiens, UniProt Q93009); experiment: biochemical
USP11 = USP11 (Homo sapiens, UniProt P51784); experiment: selectivity panel of […] purified DUBs, ubiquitin-AMC substrate; ABPP DUBome; format: biochemical
USP1 = biological target: T1, USP1 (Homo sapiens, UniProt O94782); experiment: as above; format: biochemical
T1 sequence (O94782 1-785): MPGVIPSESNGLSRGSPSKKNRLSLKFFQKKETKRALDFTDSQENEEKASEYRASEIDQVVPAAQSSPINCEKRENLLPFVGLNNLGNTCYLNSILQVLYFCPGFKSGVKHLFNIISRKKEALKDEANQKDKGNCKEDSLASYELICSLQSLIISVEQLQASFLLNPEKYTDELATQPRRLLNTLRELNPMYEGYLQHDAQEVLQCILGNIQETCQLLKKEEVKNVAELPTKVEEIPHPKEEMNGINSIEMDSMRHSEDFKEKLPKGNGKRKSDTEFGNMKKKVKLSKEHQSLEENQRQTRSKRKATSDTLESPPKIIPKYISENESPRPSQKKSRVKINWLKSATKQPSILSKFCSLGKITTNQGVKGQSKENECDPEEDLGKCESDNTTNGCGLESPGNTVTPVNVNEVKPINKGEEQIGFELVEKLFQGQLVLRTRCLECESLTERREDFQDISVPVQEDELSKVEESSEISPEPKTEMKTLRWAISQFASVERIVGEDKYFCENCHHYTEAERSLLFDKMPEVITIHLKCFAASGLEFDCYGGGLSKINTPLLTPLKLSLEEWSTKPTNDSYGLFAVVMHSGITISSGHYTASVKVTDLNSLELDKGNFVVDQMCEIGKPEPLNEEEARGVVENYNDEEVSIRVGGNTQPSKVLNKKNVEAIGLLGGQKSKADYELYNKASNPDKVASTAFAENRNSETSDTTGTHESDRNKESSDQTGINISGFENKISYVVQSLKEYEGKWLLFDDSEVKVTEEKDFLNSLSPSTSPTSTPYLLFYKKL

USP7, sequence (Q93009 whole entry): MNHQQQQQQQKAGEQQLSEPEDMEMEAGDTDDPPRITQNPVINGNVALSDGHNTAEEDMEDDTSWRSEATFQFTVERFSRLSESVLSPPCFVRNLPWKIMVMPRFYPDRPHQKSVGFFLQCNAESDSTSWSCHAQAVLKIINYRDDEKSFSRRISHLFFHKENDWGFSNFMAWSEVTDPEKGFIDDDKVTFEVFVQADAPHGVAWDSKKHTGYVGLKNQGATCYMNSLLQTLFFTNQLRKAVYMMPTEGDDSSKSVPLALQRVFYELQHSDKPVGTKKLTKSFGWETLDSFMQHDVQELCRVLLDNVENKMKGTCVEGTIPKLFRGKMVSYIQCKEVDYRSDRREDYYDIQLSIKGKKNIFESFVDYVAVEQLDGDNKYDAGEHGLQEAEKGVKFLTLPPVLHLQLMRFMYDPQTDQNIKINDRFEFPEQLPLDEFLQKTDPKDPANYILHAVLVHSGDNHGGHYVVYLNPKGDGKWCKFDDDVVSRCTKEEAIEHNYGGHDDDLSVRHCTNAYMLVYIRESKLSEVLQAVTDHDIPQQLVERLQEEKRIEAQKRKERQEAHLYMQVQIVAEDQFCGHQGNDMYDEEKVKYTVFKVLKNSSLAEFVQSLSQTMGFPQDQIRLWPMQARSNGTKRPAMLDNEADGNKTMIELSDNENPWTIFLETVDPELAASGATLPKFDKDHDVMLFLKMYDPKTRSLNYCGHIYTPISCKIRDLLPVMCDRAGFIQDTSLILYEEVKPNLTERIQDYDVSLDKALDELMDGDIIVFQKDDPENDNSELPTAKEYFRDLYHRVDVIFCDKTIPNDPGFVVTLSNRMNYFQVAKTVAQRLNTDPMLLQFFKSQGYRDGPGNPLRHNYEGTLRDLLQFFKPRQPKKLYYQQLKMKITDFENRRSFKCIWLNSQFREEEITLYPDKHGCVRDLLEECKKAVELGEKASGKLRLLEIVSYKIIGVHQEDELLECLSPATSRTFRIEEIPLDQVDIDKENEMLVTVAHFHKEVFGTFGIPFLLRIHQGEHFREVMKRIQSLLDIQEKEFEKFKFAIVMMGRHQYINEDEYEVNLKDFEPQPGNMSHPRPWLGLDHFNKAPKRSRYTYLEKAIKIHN
USP11, sequence (P51784 whole entry): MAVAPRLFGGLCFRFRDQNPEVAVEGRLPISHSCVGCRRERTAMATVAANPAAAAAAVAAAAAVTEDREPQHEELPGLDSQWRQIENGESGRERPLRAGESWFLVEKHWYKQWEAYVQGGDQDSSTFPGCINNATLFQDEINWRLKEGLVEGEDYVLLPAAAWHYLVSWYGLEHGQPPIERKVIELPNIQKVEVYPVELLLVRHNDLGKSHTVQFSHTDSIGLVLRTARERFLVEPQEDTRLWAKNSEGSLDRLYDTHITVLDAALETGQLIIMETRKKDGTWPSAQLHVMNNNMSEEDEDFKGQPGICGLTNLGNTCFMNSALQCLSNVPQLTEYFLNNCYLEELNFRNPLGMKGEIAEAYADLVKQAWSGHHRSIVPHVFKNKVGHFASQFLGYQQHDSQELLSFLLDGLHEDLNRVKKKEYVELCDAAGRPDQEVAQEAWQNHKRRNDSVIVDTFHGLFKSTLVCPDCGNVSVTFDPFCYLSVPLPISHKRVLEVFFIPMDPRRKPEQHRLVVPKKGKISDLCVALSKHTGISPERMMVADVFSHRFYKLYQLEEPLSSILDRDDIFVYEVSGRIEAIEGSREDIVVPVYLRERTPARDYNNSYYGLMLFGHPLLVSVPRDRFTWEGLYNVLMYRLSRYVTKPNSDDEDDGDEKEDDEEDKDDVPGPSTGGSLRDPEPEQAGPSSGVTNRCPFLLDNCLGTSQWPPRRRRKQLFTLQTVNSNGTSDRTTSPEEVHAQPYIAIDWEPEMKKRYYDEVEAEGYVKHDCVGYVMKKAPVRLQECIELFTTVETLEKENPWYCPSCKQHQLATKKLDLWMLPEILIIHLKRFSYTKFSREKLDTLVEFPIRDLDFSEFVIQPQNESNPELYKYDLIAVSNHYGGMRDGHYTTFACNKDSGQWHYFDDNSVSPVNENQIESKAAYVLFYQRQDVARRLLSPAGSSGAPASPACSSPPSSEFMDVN
USP2, sequence (O75604 whole entry): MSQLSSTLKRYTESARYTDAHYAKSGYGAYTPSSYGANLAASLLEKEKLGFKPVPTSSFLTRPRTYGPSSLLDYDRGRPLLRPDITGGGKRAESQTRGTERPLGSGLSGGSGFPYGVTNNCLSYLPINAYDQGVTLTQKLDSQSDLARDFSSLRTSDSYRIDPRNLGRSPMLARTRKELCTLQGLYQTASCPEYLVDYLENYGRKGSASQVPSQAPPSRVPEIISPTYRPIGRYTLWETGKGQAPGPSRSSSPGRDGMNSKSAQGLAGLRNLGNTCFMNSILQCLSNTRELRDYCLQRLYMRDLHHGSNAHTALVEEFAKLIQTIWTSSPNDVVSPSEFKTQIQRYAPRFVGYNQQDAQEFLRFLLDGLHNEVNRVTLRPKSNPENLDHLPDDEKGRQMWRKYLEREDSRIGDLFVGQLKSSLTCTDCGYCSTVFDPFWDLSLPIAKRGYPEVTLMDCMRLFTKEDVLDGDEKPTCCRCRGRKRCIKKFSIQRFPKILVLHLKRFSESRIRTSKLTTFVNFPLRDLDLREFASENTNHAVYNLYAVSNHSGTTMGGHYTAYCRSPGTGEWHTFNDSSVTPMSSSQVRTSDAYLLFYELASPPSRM

SMILES | selectivity panel of 41 purified DUBs, ubiquitin-AMC substrate (USP2) | pIC50 (USP7; read-out: IC50) | selectivity panel of 41 purified DUBs, ubiquitin-AMC substrate; ABPP DUBome (USP11) | selectivity panel of 41 purified DUBs, ubiquitin-AMC substrate; ABPP DUBome (USP1) | pIC50 (USP7)
Cc1ccc(/C=C2\CNC/C(=C\c3ccc(C)cc3)C2=O)cc1 [NSC632839] | This screening identified USP7, USP11, USP2, and USP1 as the key targets. | 5.42 | This screening identified USP7, USP11, USP2, and USP1 as the key targets. | This screening identified USP7, USP11, USP2, and USP1 as the key targets. | –
O=C(C[C@@H](C(F)F)n1ccc(F)n1)N1CCC(O)(Cn2cnc3c(cnn3-c3ccc(F)cc3)c2=O)CC1 [FT671] | – | – | – | – | 6.54
